Assay: Remineralization of enamel subsurface lesions (transverse microradiography and densitometric image analysis)
Design: species or system Human
Conditions: 1% v/v sodium hypochlorite for 1 min at start of CPP-ACP remineralization, versus CPP-ACP alone
Method: Human tooth enamel demineralized subsurface lesions were prepared using the method of Reynolds, (1997). J Dent Res 76:1587-1595. The enamel surface was removed by polishing to remove all adsorbed protein. This removed around 50-100 μm of enamel to expose an uncoated, polished enamel surface for the study. […] A 1% w/v CPP-ACP pH 5.0 solution was prepared using Recaldent® [Kraft Foods], a commercial source of CPP-ACP that is prepared as per Example 1 at a pH of 5.0. All blocks were remineralized with the 1% CPP-ACP pH 5 solution for 7 days at 37° C. However, half were exposed to a 1% v/v sodium hypochlorite solution for 1 min at the start of the CPP-ACP remineralization period. In other words, the sodium hypochlorite and CPP-ACP were simultaneously exposed to the subsurface lesion. After remineralization the enamel blocks were embedded, sectioned and subjected to transverse microradiography and densitometric image analysis as previously described by Reynolds (1997) to determine percent mineral content gain (% Remineralization) shown in Table 3.

Which “increase of the level of remineralization by the CPP-ACP solution” value does the source give for OCl [hypochlorite, sodium hypochlorite] here?
The value was 31%.

Reference: patent US12128068B2, “Compositions and methods for dental mineralization” (The University of Melbourne, priority 2013, dated 2024)
